Laboratory results as given in ChEMBL document CHEMBL1201862, “PubChem BioAssay data set” (2004).
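The compound was tested at five concentrations on cells cultured in 96-well plates, with a 48-hour exposure period. Here, GI50 denotes the concentration required for 50% inhibition of growth.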 Activity calls are given as the source filed them. Cut-off read from the data, not from the text of the source: active = GI50 up to about 1.1 µM and inactive = higher.

How the values were obtained:
Experiment in all cases: DTP human tumour cell line panel, 48 h
SW-620 = system: SW-620
MOLT-4 = system: MOLT-4
OVCAR-8 = system: OVCAR-8
SR = system: SR
T47D = system: T47D
A549 = system: A549
HCT-15 = system: HCT-15
BT-549 = system: BT-549
UACC-257 = system: UACC-257
U-251 = system: U-251
EKVX = system: EKVX
RPMI-8226 = system: RPMI-8226
UACC-62 = system: UACC-62
ACHN = system: ACHN
NCI-H23 = system: NCI-H23
MDA-MB-435 = system: MDA-MB-435
IGROV-1 = system: IGROV-1
Malme-3M = system: Malme-3M
TK-10 = system: TK-10
NCI/ADR-RES = system: NCI/ADR-RES
M14 = system: M14
PC-3 = system: PC-3
HOP-62 = system: HOP-62
NCI-H226 = system: NCI-H226
OVCAR-5 = system: OVCAR-5
COLO 205 = system: COLO 205
SK-MEL-5 = system: SK-MEL-5
DU-145 = system: DU-145
SK-MEL-28 = system: SK-MEL-28
UO-31 = system: UO-31
OVCAR-3 = system: OVCAR-3
CAKI-1 = system: CAKI-1
HCC 2998 = system: HCC 2998
NCI-H460 = system: NCI-H460
786-0 = system: 786-0
HCT-116 = system: HCT-116
KM12 = system: KM12
MCF7 = system: MCF7
HOP-92 = system: HOP-92
HT-29 = system: HT-29
LOX IMVI = system: LOX IMVI
MDA-MB-231 = system: MDA-MB-231
K562 = system: K562
SNB-19 = system: SNB-19
SK-MEL-2 = system: SK-MEL-2
OVCAR-4 = system: OVCAR-4
SF-268 = system: SF-268
SF-539 = system: SF-539
SK-OV-3 = system: SK-OV-3
RXF 393 = system: RXF 393
CCRF-CEM = system: CCRF-CEM
SNB-75 = system: SNB-75
A498 = system: A498
HL-60 = system: HL-60
NCI-H522 = system: NCI-H522
SF-295 = system: SF-295
MDA-N = system: MDA-N
SN12C = system: SN12C
Hs-578T = system: Hs-578T

N#Cc1nnc2ccccc2c1N
GI50 (SW-620): > 100 µM (inactive) | GI50 (MOLT-4): > 100 µM (inactive) | GI50 (OVCAR-8): > 100 µM (inactive) | GI50 (SR): > 100 µM (inactive) | GI50 (T47D): > 100 µM (inactive) | GI50 (A549): > 100 µM (inactive) | GI50 (HCT-15): > 100 µM | GI50 (BT-549): > 100 µM (inactive) | GI50 (UACC-257): > 100 µM (inactive) | GI50 (U-251): > 100 µM (inactive) | GI50 (EKVX): > 100 µM (inactive) | GI50 (RPMI-8226): > 100 µM (inactive) | GI50 (UACC-62): > 100 µM (inactive) | GI50 (ACHN): > 100 µM (inactive) | GI50 (NCI-H23): > 100 µM (inactive) | GI50 (MDA-MB-435): > 100 µM (inactive) | GI50 (IGROV-1): > 100 µM (inactive) | GI50 (Malme-3M): > 100 µM (inactive) | GI50 (TK-10): > 100 µM (inactive) | GI50 (NCI/ADR-RES): > 100 µM (inactive) | GI50 (M14): > 100 µM (inactive) | GI50 (PC-3): > 100 µM (inactive) | GI50 (HOP-62): > 100 µM (inactive) | GI50 (NCI-H226): > 100 µM (inactive) | GI50 (OVCAR-5): > 100 µM (inactive) | GI50 (COLO 205): > 100 µM (inactive) | GI50 (SK-MEL-5): > 100 µM (inactive) | GI50 (DU-145): > 100 µM (inactive) | GI50 (SK-MEL-28): > 100 µM (inactive) | GI50 (UO-31): > 100 µM (inactive) | GI50 (OVCAR-3): 2.26 µM (inactive) | GI50 (CAKI-1): > 100 µM (inactive) | GI50 (HCC 2998): > 100 µM (inactive) | GI50 (NCI-H460): > 100 µM (inactive) | GI50 (786-0): > 100 µM (inactive) | GI50 (HCT-116): > 100 µM (inactive) | GI50 (KM12): > 100 µM (inactive) | GI50 (MCF7): > 100 µM (inactive) | GI50 (HOP-92): > 100 µM (inactive) | GI50 (HT-29): > 100 µM (inactive) | GI50 (LOX IMVI): > 100 µM (inactive) | GI50 (MDA-MB-231): > 100 µM (inactive) | GI50 (K562): > 100 µM (inactive) | GI50 (SNB-19): > 100 µM (inactive) | GI50 (SK-MEL-2): > 100 µM (inactive) | GI50 (OVCAR-4): > 100 µM (inactive) | GI50 (SF-268): > 100 µM (inactive) | GI50 (SF-539): > 100 µM (inactive)

CS(=O)(=O)c1nc(-c2cc3c(c(S(C)(=O)=O)n2)CCC3)cc2c1CCC2
GI50 (SW-620): > 100 µM (inactive) | GI50 (MOLT-4): > 100 µM (inactive) | GI50 (OVCAR-8): 74.5 µM (inactive) | GI50 (SK-OV-3): > 100 µM (inactive) | GI50 (RXF 393): 33.7 µM (inactive) | GI50 (A549): > 100 µM (inactive) | GI50 (HCT-15): > 100 µM | GI50 (BT-549): > 100 µM (inactive) | GI50 (UACC-257): > 100 µM (inactive) | GI50 (U-251): 47.3 µM (inactive) | GI50 (EKVX): > 100 µM (inactive) | GI50 (RPMI-8226): > 100 µM (inactive) | GI50 (UACC-62): > 100 µM (inactive) | GI50 (ACHN): > 100 µM (inactive) | GI50 (NCI-H23): > 100 µM (inactive) | GI50 (MDA-MB-435): > 100 µM (inactive) | GI50 (IGROV-1): 44.3 µM (inactive) | GI50 (TK-10): > 100 µM (inactive) | GI50 (NCI/ADR-RES): > 100 µM (inactive) | GI50 (CCRF-CEM): > 100 µM (inactive) | GI50 (M14): > 100 µM (inactive) | GI50 (PC-3): > 100 µM (inactive) | GI50 (HOP-62): > 100 µM (inactive) | GI50 (NCI-H226): > 100 µM (inactive) | GI50 (SNB-75): 22.4 µM (inactive) | GI50 (OVCAR-5): > 100 µM (inactive) | GI50 (A498): > 100 µM (inactive) | GI50 (COLO 205): > 100 µM (inactive) | GI50 (SK-MEL-5): > 100 µM (inactive) | GI50 (DU-145): > 100 µM (inactive) | GI50 (SK-MEL-28): > 100 µM (inactive) | GI50 (UO-31): > 100 µM (inactive) | GI50 (OVCAR-3): > 100 µM (inactive) | GI50 (CAKI-1): > 100 µM (inactive) | GI50 (HL-60): > 100 µM (inactive) | GI50 (HCC 2998): > 100 µM (inactive) | GI50 (NCI-H460): > 100 µM (inactive) | GI50 (786-0): 82.6 µM (inactive) | GI50 (HCT-116): > 100 µM (inactive) | GI50 (NCI-H522): > 100 µM (inactive) | GI50 (KM12): > 100 µM (inactive) | GI50 (HT-29): > 100 µM (inactive) | GI50 (LOX IMVI): > 100 µM (inactive) | GI50 (MDA-MB-231): 24.4 µM (inactive) | GI50 (K562): > 100 µM (inactive) | GI50 (SNB-19): 67.5 µM (inactive) | GI50 (SF-295): > 100 µM (inactive) | GI50 (MDA-N): > 100 µM (inactive) | GI50 (SK-MEL-2): > 100 µM (inactive) | GI50 (OVCAR-4): > 100 µM (inactive) | GI50 (SF-268): 44.3 µM (inactive) | GI50 (SN12C): > 100 µM (inactive) | GI50 (SF-539): > 100 µM (inactive)

COC(=O)c1ccc(NCc2cc(OC)ccc2OC)cc1
GI50 (SW-620): 58.2 µM (inactive) | GI50 (Hs-578T): 92 µM (inactive) | GI50 (MOLT-4): 33.3 µM (inactive) | GI50 (OVCAR-8): > 100 µM (inactive) | GI50 (SK-OV-3): 57 µM (inactive) | GI50 (SR): 38 µM (inactive) | GI50 (A549): 38.7 µM (inactive) | GI50 (HCT-15): 30.6 µM | GI50 (BT-549): 53.8 µM (inactive) | GI50 (UACC-257): 52.1 µM (inactive) | GI50 (U-251): 74.3 µM (inactive) | GI50 (EKVX): 80 µM (inactive) | GI50 (RPMI-8226): 65.8 µM (inactive) | GI50 (UACC-62): 44.8 µM (inactive) | GI50 (ACHN): 34.5 µM (inactive) | GI50 (NCI-H23): 65 µM (inactive) | GI50 (MDA-MB-435): 21.8 µM (inactive) | GI50 (IGROV-1): > 100 µM (inactive) | GI50 (Malme-3M): 36.1 µM (inactive) | GI50 (TK-10): 24 µM (inactive) | GI50 (NCI/ADR-RES): 30.3 µM (inactive) | GI50 (CCRF-CEM): 42.1 µM (inactive) | GI50 (M14): 40.6 µM (inactive) | GI50 (PC-3): 39 µM (inactive) | GI50 (NCI-H226): 69.8 µM (inactive) | GI50 (SNB-75): 34.2 µM (inactive) | GI50 (OVCAR-5): > 100 µM (inactive) | GI50 (A498): 26.2 µM (inactive) | GI50 (COLO 205): 35.6 µM (inactive) | GI50 (SK-MEL-5): 31.2 µM (inactive) | GI50 (DU-145): > 100 µM (inactive) | GI50 (SK-MEL-28): 39.1 µM (inactive) | GI50 (UO-31): 45.6 µM (inactive) | GI50 (OVCAR-3): 59.2 µM (inactive) | GI50 (CAKI-1): 33.7 µM (inactive) | GI50 (HL-60): 26.3 µM (inactive) | GI50 (HCC 2998): 67.6 µM (inactive) | GI50 (786-0): > 100 µM (inactive) | GI50 (HCT-116): 45 µM (inactive) | GI50 (NCI-H522): 38.4 µM (inactive) | GI50 (KM12): 31.1 µM (inactive) | GI50 (MCF7): 26.7 µM (inactive) | GI50 (HOP-92): 42.7 µM (inactive) | GI50 (HT-29): 28.8 µM (inactive) | GI50 (LOX IMVI): 24.3 µM (inactive) | GI50 (MDA-MB-231): 46.7 µM (inactive) | GI50 (K562): 35.6 µM (inactive) | GI50 (SNB-19): > 100 µM (inactive) | GI50 (MDA-N): 20.8 µM (inactive) | GI50 (SK-MEL-2): 54.6 µM (inactive) | GI50 (OVCAR-4): > 100 µM (inactive) | GI50 (SF-268): > 100 µM (inactive) | GI50 (SF-539): 68.5 µM (inactive)
